Experimental data reported in patent US6984484B1, “Mammalian serine racemase” (The Johns Hopkins University, priority 1999, dated 2006).
Values belong to the molecule of their own block, whether it stands above or below them.

Columns and labels:
serine racemase [1] = target: T1, serine racemase (Rattus norvegicus, UniProt Q76EQ0); test: Absorption spectra of purified serine racemase; settings: 70 μg/ml enzyme preincubated 10 minutes with 1 mM AOAA (FIG. 5)
T1 construct: the rat brain enzyme we have purified; from tissue; host or cells: rat brain (10–14 day old Sprague-Dawley rats)
T1 sequence (Q76EQ0 1-333): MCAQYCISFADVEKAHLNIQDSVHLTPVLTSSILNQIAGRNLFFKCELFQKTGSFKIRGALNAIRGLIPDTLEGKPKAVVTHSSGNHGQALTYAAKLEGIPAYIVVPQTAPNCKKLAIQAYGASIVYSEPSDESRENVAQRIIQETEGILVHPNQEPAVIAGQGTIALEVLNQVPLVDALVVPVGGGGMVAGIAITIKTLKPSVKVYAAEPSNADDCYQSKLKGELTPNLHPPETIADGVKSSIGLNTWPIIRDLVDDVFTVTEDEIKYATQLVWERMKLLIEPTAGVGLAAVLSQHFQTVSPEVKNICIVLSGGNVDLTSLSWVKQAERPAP
Protocol: FIG. 5. Absorption spectra of purified serine racemase. Purified enzyme (70 μg/ml) was preincubated for 10 minutes in medium containing 10 mM KPi (pH 7.2), 2 mM DTT, 1 mM EDTA, 10 μM PLP, either in the absence (Control) or in the presence of 1 mM aminooxyacetic acid (AOAA). The distinct peaks of absorbance at 420 and 340 nm were not observed in the presence of buffer alone or when bovine serum albumin was used instead of serine racemase.
For most applications the purified protein was further concentrated using centriplus 30. Protein concentration was determined with Coomassie plus protein assay reagent (Pierce). Enzyme-bound PLP was determined at room temperature by recording the absorbance of the purified protein in the range of 500 to 280 nm using a Lambda Bio spectrophotometer (Perkin Elmer).
Examination of the absorption spectrum of the enzyme confirms the importance of PLP. […] The peak at 420 nm, corresponding to a Schiff's base complex of PLP with an active site lysine, is abolished by treatment with AOAA (FIG. 5).

serine racemase [2] = target: T1, serine racemase; test: Inhibition of serine racemase by PLP inhibitors and sulfhydryl oxidation; PLP requirement; type: biochemical; settings: for Effect on enzyme activity (PLP inhibitors): 37° C., pH 8.0, 20 mM L-serine, 2 mM DTT, 10 μM PLP, different concentrations (FIG. 4A)
Protocol: FIG. 4. inhibition of serine racemase by PLP inhibitors and sulfhydryl oxidation. FIG. 4A. Enzyme activity was monitored at 37° C. in a medium containing 50 mM Tris-HCl (pH 8.0), 20 mM L-serine, 40–100 μg/ml purified enzyme, 1 mM EDTA, 2 mM DTT, 10 μM pyridoxal 5′-phosphate and different concentrations of either aminooxyacetic acid (◯) or hydroxylamine (●). FIG. 4B. Reaction medium and conditions were as described in A, except that DTT was omitted from the last step of the enzyme preparation. The enzyme was preincubated for 10 minutes in the presence of different concentrations of oxidized glutathione (GSSG).
D-serine formation was monitored by a chemiluminescent assay that specifically detects D-serine. Racemase activity was performed in the presence of 50 mM Tris-HCl (pH 8.0), 18 μl enzyme extract, 1 mM EDTA, 2 mM DTT, 15 μM pyridoxal 5′-phosphate (PLP), and 20 mM L-serine. After 0.5 to 8 hours incubation at 37° C., the reaction was terminated by the addition of trichloroacetic acid (TCA) to a final concentration of 5%. Blanks employed boiled enzyme extract. The precipitated protein was removed by centrifugation, and the supernatant was extracted 2 times with 1 ml of water-saturated diethyl ether to remove TCA. D-serine concentration was determined by incubation of the samples with D-amino acid oxidase, which specifically degrades D-amino acids, generating an α-keto acid, NH3 and hydrogen peroxide (16).
The generation of hydrogen peroxide was quantitated by the use of peroxidase and luminol, which emits light. A 10 μl sample aliquot was added to 100 μl of medium containing 100 mM Tris-HCl (pH 8.8), 10 U/ml peroxidase, and 8 μM luminol. After a 10 to 20 minute delay required to decrease the nonspecific luminol luminescence, 10 μl of D-amino acid oxidase (75 U/ml) were added, and the tubes were gently mixed with a pipette tip. Maximum luminescence was recorded after 10 to 15 minutes at room temperature using a Monolight 2010 luminometer (Analytical Luminescence Laboratory). The amount of D-serine in each sample was calculated by comparison with standard curves. The measurements were reliable in the range of 50 to 2000 pmol D-serine per sample. […] Alternatively, amino acid enantiomers were separated by high performance liquid chromatography (HPLC) using a carbon 18 reverse phase column (RP18 Spheri-5, 22 cm×4.6 mm, Perkin Elmer) with fluorimetric detection after derivatization with L-Boc-cys and OPA, as described (17). The results obtained with chemiluminescent assay were identical to those obtained using HPLC. […]
We wondered whether conversion of L to D-serine might be a by-product of a different enzyme activity with non-enzymatic racemization giving rise to D-serine. Accordingly, we monitored by HPLC levels of L and D-serine at different incubation times (Table 2). […]

[3] = target: NMDA receptor "glycine site" (Homo sapiens, UniProt Q05586); settings: reference 14; cited from earlier work
serine racemase [4] = target: T1, serine racemase; test: Substrate specificity of serine racemase; type: biochemical; settings: for Specific activity / % control: 20 mM L-amino acids; for Specific activity: 37° C., pH 8.0, 8 h, HPLC; for % control: activity relative to L-serine, 8 h; for Racemase activity with the amino acid: purified enzyme
Protocol: (§1) The generation of hydrogen peroxide was quantitated by the use of peroxidase and luminol, which emits light. A 10 μl sample aliquot was added to 100 μl of medium containing 100 mM Tris-HCl (pH 8.8), 10 U/ml peroxidase, and 8 μM luminol. After a 10 to 20 minute delay required to decrease the nonspecific luminol luminescence, 10 μl of D-amino acid oxidase (75 U/ml) were added, and the tubes were gently mixed with a pipette tip. Maximum luminescence was recorded after 10 to 15 minutes at room temperature using a Monolight 2010 luminometer (Analytical Luminescence Laboratory). The amount of D-serine in each sample was calculated by comparison with standard curves. The measurements were reliable in the range of 50 to 2000 pmol D-serine per sample. […] Alternatively, amino acid enantiomers were separated by high performance liquid chromatography (HPLC) using a carbon 18 reverse phase column (RP18 Spheri-5, 22 cm×4.6 mm, Perkin Elmer) with fluorimetric detection after derivatization with L-Boc-cys and OPA, as described (17). The results obtained with chemiluminescent assay were identical to those obtained using HPLC.
The presence of trace amounts of D-serine in the commercial L-serine reagent generates high blank values. Thus, the stock solution of L-serine (100 mM) was routinely pre-treated for 3 days with 30 units of D-amino acid oxidase and 500 units of catalase to remove any D-serine contaminant. The enzymes were precipitated by the addition of 5% TCA. After removal of TCA by extraction with diethyl ether, the L-serine solution was neutralized with NaOH and could be used without further purification, being virtually free of any D-serine contaminant. The same purification procedure was applied for L-alanine and L-threonine.
Additionally, we examined the purified enzyme for the presence of other enzyme activities which might indirectly contribute to D-serine formation. We found no evidence for serine: pyruvate aminotransferase activity, as L-serine levels were not altered in the presence of pyruvate. […] There is no evidence for serine dehydratase activity which would be associated with a marked decrease in L-serine levels.

serine racemase [5] = target: T1, serine racemase; test: Racemization of L-serine over time, L- and D-serine by HPLC; type: biochemical
Protocol: as §1
We wondered whether conversion of L to D-serine might be a by-product of a different enzyme activity with non-enzymatic racemization giving rise to D-serine. Accordingly, we monitored by HPLC levels of L and D-serine at different incubation times (Table 2). Increases in formation of D-serine are paralleled by stoichiometric decreases in levels of L-serine, making it unlikely that L-serine is converted to any other compound by the enzyme.

[6] = time 0, 4 mM L-serine, 40 μg/ml purified enzyme, 37° C.

Molecule: N[C@H](CO)C(=O)O [D-serine]
Potency relative to glycine at the glycine site [3]: up to three times more potent than glycine

Molecule: C[C@@H](O)[C@H](N)C(=O)O [L-threonine]
Specific activity (serine racemase [4]): 0 µmol/mg/h | Racemase activity with the amino acid (serine racemase [4]): no activity

Molecule: Cc1ncc(COP(=O)(O)O)c(C=O)c1O [PLP, pyridoxal 5′-phosphate]
Enzyme activity after dialysis without PLP, on addition of PLP (serine racemase [2]; dialysis for 16 hours against 1,000 volumes of purification buffer without PLP): can be restored by the addition of PLP

Molecule: NO [hydroxylamine]
Effect on enzyme activity (PLP inhibitors) (serine racemase [2]): inhibit enzyme activity

Molecule: oxidized glutathione
Effect on enzyme activity (sulfhydryl oxidation) (serine racemase [2]; DTT omitted, enzyme preincubated for 10 minutes with different concentrations (FIG. 4B)): markedly reduces enzyme activity

The remaining lines, values ahead:

Absorption peak at 420 nm of the enzyme (Schiff's base complex of PLP) (serine racemase [1]): abolished | Effect on enzyme activity (PLP inhibitors) (serine racemase [2]): inhibit enzyme activity
Molecule: NOCC(=O)O [Aminooxyacetic acid, aminooxyacetic acid]

Specific activity (serine racemase [4]): 0.012 µmol/mg/h
Molecule: C[C@H](N)C(=O)O [L-alanine]

Specific activity (serine racemase [4]): 0 µmol/mg/h | % control (serine racemase [4]): 0% | Racemase activity with the amino acid (serine racemase [4]): no activity
Molecule: N[C@@H](CC(=O)O)C(=O)O [L-aspartate]

Specific activity (serine racemase [4]): 4.8 µmol/mg/h | % control (serine racemase [4]): 100% | [D-sertne] (serine racemase [5]; [6]): 0.0007 mM | [L-serine] (serine racemase [5]; [6]): 4.00 mM | [D-sertne] (serine racemase [5]; time 0.5 h): 0.042 mM | [L-serine] (serine racemase [5]; time 0.5 h): 3.96 mM | [D-sertne] (serine racemase [5]; time 1 h): 0.101 mM | [L-serine] (serine racemase [5]; time 1 h): 3.93 mM | [D-sertne] (serine racemase [5]; time 4 h): 0.342 mM | [L-serine] (serine racemase [5]; time 4 h): 3.65 mM
Molecule: N[C@@H](CO)C(=O)O [L-serine]
